Reference: patent US10294237B2, “Bicyclic heterocyclic amide derivative” (Sumitomo Dainippon Pharma Co., Ltd., priority 2015, dated 2019)

Columns and labels:
[1] = test system: HCT-116 cells; experiment: Test for inhibiting sphere-forming ability of cancer cells; assay type: cell-based; settings: HCT-116 spheres, non-adherent, serum-free, 4 days, CellTiter-Glo, read-out: IC50 (Sphere IC50 value; concentration for 50% inhibition of cell proliferation)
Experimental: (§1) The reliable methods established for measuring the self-renewal ability of cells which is one of the CSC's properties include a method for measuring the sphere-forming ability of cancer cells in non-adherent condition in the absence of serum (Cancer Res 65, 5506-5511 (2005)). HCT-116 cells were available from the American Type Culture Collection (ATCC). HCT-116 cells were cultured at 37° C. and 5% CO2 using the McCoy's 5a medium containing 10% fetal bovine serum (FBS) and 1% penicillin/streptomycin. HCT-116 cells were seeded in a 384 Well Black Clear Bottom Ultra-Low Attachment Microplate (Corning Cat. No. 3827) in an amount of 350-800 cells/well using the DMEM/F12 medium containing 2% B27 supplement (GIBCO), 20 ng/mL epidermal growth factor (EGF) (peprotech), 10 ng/mL basic fibroblast growth factor (bFGF) (peprotech), 5 μg/mL insulin (Sigma), and 1% penicillin/streptomycin. The test compounds were added into each well to adjust the final concentration of DMSO to 0.1%, and the cells were cultured for 4 days. The number of viable cells in each well was then measured with CellTiter-Glo® Luminescent Cell Viability Assay (Promega) to calculate the concentration of each test compound for 50% inhibition of cell proliferation (Sphere IC50 value; μmol/L).
The experiment of Test Example 1 was performed for the compounds of each Example. The concentrations of each test compound for 50% inhibition of cell profeliration (Sphere IC50 value; μmol/L) are shown in the following Table.

[2] = test system: HCT-116 cells; experiment: Test for inhibiting sphere-forming ability of cancer cells (in the presence of BSA); assay type: cell-based; settings: HCT-116 spheres, non-adherent, 5% BSA, 4 days, CellTiter-Glo, read-out: IC50 (Sphere IC50 value; concentration for 50% inhibition of cell proliferation)
Experimental: as §1, with “HCT-116” for “The reliable methods established for measuring the self-renewal ability of cells which is one of the CSC's properties include a method for measuring the sphere-forming ability of cancer cells in non-adherent condition in the absence of serum (Cancer Res 65, 5506-5511 (2005)). HCT-116”, “(Sigma), 5% bovine serum albumin (BSA),” for “(Sigma),”
The experiment of Test Example 2 was performed for the compounds of each Example. The concentrations of each test compound for 50% inhibition of cell profeliration (Sphere IC50 value; μmol/L) are shown in the following Table.

O=C(Nc1cn(Cc2ccc(Cl)c(F)c2)cn1)c1cnc2c(c1)CCNC2 [Example 51, N-[1-(4-chloro-3-fluorobenzyl)-1H-imidazol-4-yl]-5,6,7,8-tetrahydro-1,7-naphthyridine-3-carboxamide] was tested, and the IC50 ([1]; Homo sapiens, 96 h) was 60 nM and the IC50 ([2]; Homo sapiens, HCT-116, 96 h) was 50 nM.

O=C(Nc1cn(Cc2cc(F)cc(Cl)c2)cn1)c1cnc2c(c1)CCNC2 [Example 52, N-[1-(3-chloro-5-fluorobenzyl)-1H-imidazol-4-yl]-5,6,7,8-tetrahydro-1,7-naphthyridine-3-carboxamide] gave an IC50 ([1]; Homo sapiens, 96 h) of 60 nM and an IC50 ([2]; Homo sapiens, HCT-116, 96 h) of 60 nM.

O=C(Nc1cn(Cc2ccc(F)c(C(F)(F)F)c2)cn1)c1cnc2c(c1)CCNC2 [Example 53, N-{1-[4-fluoro-3-(trifluoromethyl)benzyl]-1H-imidazol-4-yl}-5,6,7,8-tetrahydro-1,7-naphthyridine-3-carboxamide] showed an IC50 ([1]; Homo sapiens, 96 h) of 60 nM and an IC50 ([2]; Homo sapiens, HCT-116, 96 h) of 60 nM.

Work on O=C(Nc1cn(Cc2ccc(Cl)c(C(F)(F)F)c2)cn1)c1cnc2c(c1)CCNC2 [Example 54, N-{1-[4-chloro-3-(trifluoromethyl)benzyl]-1H-imidazol-4-yl}-5,6,7,8-tetrahydro-1,7-naphthyridine-3-carboxamide] yielded an IC50 ([1]; Homo sapiens, 96 h) of under 10 nM and an IC50 ([2]; Homo sapiens, HCT-116, 96 h) of 30 nM.

In the case of O=C(Nc1cn(CC2CCCCC2)cn1)c1cnc2c(c1)CCNC2 [Example 55], the IC50 [1] is reported as 80 nM and the IC50 [2] is reported as 50 nM.

In the case of O=C(Nc1cn(CCC2CCCCC2)cn1)c1cnc2c(c1)CCNC2 [Example 56], the IC50 [1] is reported as 70 nM and the IC50 [2] is reported as 160 nM.

Compound COc1cccc(Cn2cnc(NC(=O)c3cnc4c(c3)CCNC4)c2)c1 [Example 58] has an IC50 [1] of 180 nM and an IC50 [2] of 80 nM.

O=C(Nc1cn(Cc2ccccc2)cn1)c1cnc2c(c1)CCNC2 [Example 59] showed an IC50 [1] of 610 nM and an IC50 [2] of 370 nM.

Compound Cc1ccccc1Cn1cnc(NC(=O)c2cnc3c(c2)CCNC3)c1 [Example 60] has an IC50 [1] of 250 nM and an IC50 [2] of 100 nM.

O=C(Nc1cn(Cc2ccc(F)cc2)cn1)c1cnc2c(c1)CCNC2 [Example 61] gave an IC50 [1] of 370 nM and an IC50 [2] of 60 nM.

Work on O=C(Nc1cn(Cc2ccccc2C(F)(F)F)cn1)c1cnc2c(c1)CCNC2 [Example 62] yielded an IC50 [1] of 710 nM and an IC50 [2] of 590 nM.

For N#Cc1cccc(Cn2cnc(NC(=O)c3cnc4c(c3)CCNC4)c2)c1 [Example 63], the IC50 [1] was 3590 nM and the IC50 [2] was 710 nM.

Compound O=C(Nc1cn(Cc2ccc(C(F)(F)F)cc2)cn1)c1cnc2c(c1)CCNC2 [Example 64, N-{1-[4-(trifluoromethyl)benzyl]-1H-imidazol-4-yl}-5,6,7,8-tetrahydro-1,7-naphthyridine-3-carboxamide] has an IC50 ([1]; Homo sapiens, 96 h) of 90 nM and an IC50 ([2]; Homo sapiens, HCT-116, 96 h) of 170 nM.

With O=C(Nc1cn(Cc2ccc(Cl)cc2)cn1)c1cnc2c(c1)CCNC2 [Example 65, N-[1-(4-chlorobenzyl)-1H-imidazol-4-yl]-5,6,7,8-tetrahydro-1,7-naphthyridine-3-carboxamide] the IC50 ([1]; Homo sapiens, 96 h) was 80 nM and the IC50 ([2]; Homo sapiens, HCT-116, 96 h) was 380 nM.

Compound O=C(Nc1cn(Cc2ccc3ccccc3c2)cn1)c1cnc2c(c1)CCNC2 [Example 66] has an IC50 [1] of 700 nM and an IC50 [2] of 5490 nM.

With Cc1ccc(Cn2cnc(NC(=O)c3cnc4c(c3)CCNC4)c2)cc1 [Example 68] the IC50 [1] was 560 nM and the IC50 [2] was 650 nM.

In the case of O=C(Nc1cn(CCCc2ccccc2)cn1)c1cnc2c(c1)CCNC2 [Example 69], the IC50 [1] is reported as 760 nM and the IC50 [2] is reported as 680 nM.

O=C(Nc1cn(Cc2cc(Cl)cc(OC(F)(F)F)c2)cn1)c1cnc2c(c1)CCNC2 [Example 70, N-{1-[3-chloro-5-(trifluoromethoxy)benzyl]-1H-imidazol-4-yl}-5,6,7,8-tetrahydro-1,7-naphthyridine-3-carboxamide] gave an IC50 ([1]; Homo sapiens, 96 h) of 40 nM and an IC50 ([2]; Homo sapiens, HCT-116, 96 h) of 60 nM.

With O=C(Nc1cn(Cc2ccccc2)cn1)c1ccc2c(c1)CCNC2 [Example 71] the IC50 [1] was 920 nM and the IC50 [2] was 770 nM.

O=C(Nc1cn(Cc2ccccc2F)cn1)c1ccc2c(c1)CCNC2 [Example 72] gave an IC50 [1] of 3450 nM and an IC50 [2] of 5460 nM.

O=C(Nc1cn(Cc2ccc(F)c(F)c2)cn1)c1ccc2c(c1)CCNC2 [Example 73] gave an IC50 [1] of 610 nM and an IC50 [2] of 540 nM.

O=C(Nc1cn(Cc2cc(F)cc(F)c2)cn1)c1ccc2c(c1)CCNC2 [Example 74] showed an IC50 [1] of 490 nM and an IC50 [2] of 490 nM.

With O=C(Nc1cn(Cc2ccc(OC(F)(F)F)cc2)cn1)c1ccc2c(c1)CCNC2 [Example 75] the IC50 [1] was 400 nM and the IC50 [2] was 610 nM.

Cc1ccccc1Cn1cnc(NC(=O)c2ccc3c(c2)CCNC3)c1 [Example 76] was tested, and the IC50 [1] was 680 nM and the IC50 [2] was 590 nM.

O=C(Nc1cn(Cc2cccc(F)c2)cn1)c1ccc2c(c1)CCNC2 [Example 77] gave an IC50 [1] of 620 nM and an IC50 [2] of 600 nM.

COc1cccc(Cn2cnc(NC(=O)c3ccc4c(c3)CCNC4)c2)c1 [Example 78] was tested, and the IC50 [1] was 560 nM and the IC50 [2] was 560 nM.

O=C(Nc1cn(Cc2ccc(F)cc2)cn1)c1ccc2c(c1)CCNC2 [Example 79] gave an IC50 [1] of 550 nM and an IC50 [2] of 490 nM.

Cc1cccc(Cn2cnc(NC(=O)c3ccc4c(c3)CCNC4)c2)c1 [Example 80] showed an IC50 [1] of 620 nM and an IC50 [2] of 600 nM.

Work on Cc1ccc(Cn2cnc(NC(=O)c3ccc4c(c3)CCNC4)c2)cc1 [Example 81] yielded an IC50 [1] of 950 nM and an IC50 [2] of 6220 nM.

Compound O=C(Nc1cn(Cc2ccccc2C(F)(F)F)cn1)c1ccc2c(c1)CCNC2 [Example 82] has an IC50 [1] of 3790 nM and an IC50 [2] of 4900 nM.

In the case of O=C(Nc1cn(Cc2ccc(C(F)(F)F)cc2)cn1)c1ccc2c(c1)CCNC2 [Example 83], the IC50 [1] is reported as 720 nM and the IC50 [2] is reported as 540 nM.

Work on O=C(Nc1cn(CC2CCCCC2)cn1)c1ccc2c(c1)CCNC2 [Example 85] yielded an IC50 [1] of 610 nM and an IC50 [2] of 590 nM.

O=C(Nc1cn(CCC2CCCCC2)cn1)c1ccc2c(c1)CCNC2 [Example 86] showed an IC50 [1] of 470 nM and an IC50 [2] of 560 nM.

O=C(Nc1cn(Cc2ccc(Cl)cc2)cn1)c1ccc2c(c1)CCNC2 [Example 87] was tested, and the IC50 [1] was 600 nM and the IC50 [2] was 580 nM.

Compound N#Cc1cccc(Cn2cnc(NC(=O)c3ccc4c(c3)CCNC4)c2)c1 [Example 88] has an IC50 [1] of 5030 nM and an IC50 [2] of 950 nM.

Compound O=C(Nc1cn(Cc2cccc(Oc3ccccc3)c2)cn1)c1ccc2c(c1)CCNC2 [Example 89, N-[1-(3-phenoxybenzyl)-1H-imidazol-4-yl]-1,2,3,4-tetrahydroisoquinoline-6-carboxamide] has an IC50 ([1]; Homo sapiens, 96 h) of 70 nM and an IC50 ([2]; Homo sapiens, HCT-116, 96 h) of 640 nM.

With O=C(Nc1cn(Cc2ccc(Cl)c(F)c2)cn1)c1ccc2c(c1)CCNC2 [Example 90, N-[1-(4-chloro-3-fluorobenzyl)-1H-imidazol-4-yl]-1,2,3,4-tetrahydroisoquinoline-6-carboxamide] the IC50 ([1]; Homo sapiens, 96 h) was 70 nM and the IC50 ([2]; Homo sapiens, HCT-116, 96 h) was 100 nM.

For O=C(Nc1cn(Cc2cc(F)cc(Cl)c2)cn1)c1ccc2c(c1)CCNC2 [Example 91, N-[1-(3-chloro-5-fluorobenzyl)-1H-imidazol-4-yl]-1,2,3,4-tetrahydroisoquinoline-6-carboxamide], the IC50 ([1]; Homo sapiens, 96 h) was 70 nM and the IC50 ([2]; Homo sapiens, HCT-116, 96 h) was 80 nM.

For O=C(Nc1cn(Cc2ccc(F)c(C(F)(F)F)c2)cn1)c1ccc2c(c1)CCNC2 [Example 92, N-{1-[4-fluoro-3-(trifluoromethyl)benzyl]-1H-imidazol-4-yl}-1,2,3,4-tetrahydroisoquinoline-6-carboxamide], the IC50 ([1]; Homo sapiens, 96 h) was 70 nM and the IC50 ([2]; Homo sapiens, HCT-116, 96 h) was 90 nM.

For O=C(Nc1cn(Cc2ccc(Cl)c(C(F)(F)F)c2)cn1)c1ccc2c(c1)CCNC2 [Example 93, N-{1-[4-chloro-3-(trifluoromethyl)benzyl]-1H-imidazol-4-yl}-1,2,3,4-tetrahydroisoquinoline-6-carboxamide], the IC50 ([1]; Homo sapiens, 96 h) was under 10 nM and the IC50 ([2]; Homo sapiens, HCT-116, 96 h) was 70 nM.

With COc1cc(Cn2cnc(NC(=O)c3ccc4c(c3)CCNC4)c2)cc(OC)c1 [Example 94] the IC50 ([1]; Homo sapiens, 96 h) was 6990 nM and the IC50 ([2]; Homo sapiens, HCT-116, 96 h) was 6110 nM.

In the case of O=C(Nc1cn(Cc2ccc(F)c(Cl)c2)cn1)c1ccc2c(c1)CCNC2 [Example 95, N-[1-(3-chloro-4-fluorobenzyl)-1H-imidazol-4-yl]-1,2,3,4-tetrahydroisoquinoline-6-carboxamide], the IC50 ([1]; Homo sapiens, 96 h) is reported as 80 nM and the IC50 ([2]; Homo sapiens, HCT-116, 96 h) is reported as 90 nM.
